Reference: ChEMBL document CHEMBL5390253, “Discovery of Selective and Potent Macrocyclic CDK9 Inhibitors for the Treatment of Osimertinib-Resistant Non-Small-Cell Lung Cancer” (J Med Chem, 2023)
Active and inactive are the calls of the source. The calls are words filed in the database; no cut-off is given here.

Key:
[1] = Toxicity in ICR mouse assessed as morphological changes in lung at 1000 mg/kg, po measured after 9 days by H and E staining based analysis; format: organism-based; settings: in vivo, 216 h, time 9 day
[2] = Antitumor activity against patient derived #0085 lung cancer organoid assessed as inhibition of growth measured after 4 days; format: functional, tissue-based; settings: Homo sapiens, 96 h
NCI-H1975 [3] = assay: Inhibition of colony formation in human Osimertinib-resistant NCI-H1975 cell assessed as inhibition of cell growth at 125 to 2000 nM measured after 2 weeks by crystal violet staining based analysis; format: functional; settings: dose 125-2000 nM
[4] = Half life in Sprague-Dawley rat at 2 mg/kg, iv measured upto 24 hrs; format: ADME, organism-based; settings: in vivo
HCC827 = assay: Antiproliferative activity against human HCC827 cells incubated for 72 hrs by MTT assay; format: functional, cell-based; settings: HCC827, 72 h
[5] = Toxicity in ICR mouse assessed as abnormalities in liver at 1000 mg/kg, po measured after 9 days by H and E staining based analysis; format: organism-based; settings: in vivo, 216 h, time 9 day
[6] = target: T1, Cyclin-dependent kinase 2/cyclin E1 (Homo sapiens) (UniProt P24864+P24941); assay: Inhibition of CDK2/cyclin E1 (unknown origin) at 500 nM preincubated for 10 mins followed by substrate addition and measured after 60 mins in presence of ATP by ADP-Glo reagent based assay relative to control; format: protein-complex assay; settings: time 70.0 min
[7] = Induction of apoptosis in human Osimertinib-resistant NCI-H1975 cell assessed as necrotic cells at 125 nM measured after 16 hrs in presence of osimertinib by Annexin V-FITC and PI staining based analysis (reference value: 0.50%); format: functional
[8] = target: Dual specificity protein kinase CLK3 (Homo sapiens) (UniProt P49761); assay: Inhibition of CLK3 (unknown origin) at 100 nM preincubated for 10 mins followed by substrate addition and measured after 60 mins in presence of ATP by ADP-Glo reagent based assay relative to control; settings: time 70.0 min
NCI-H1975 [9] = assay: Antiproliferative activity against human NCI-H1975 cells incubated for 72 hrs by MTT assay; format: functional, cell-based; settings: NCI-H1975, 72 h
NCI-H1975 [10] = assay: Downregulation of cleaved PARP level in human Osimertinib-resistant NCI-H1975 cell measured after 16 hrs by Western blot analysis; format: functional, cell-based; settings: dose 125-2000 nM
[11] = target: Cyclin-dependent kinase 13/Cyclin-K (Homo sapiens) (UniProt Q14004+O75909); assay: Inhibition of CDK13/cyclin K (unknown origin) at 200 nM preincubated for 10 mins followed by substrate addition and measured after 60 mins in presence of ATP by ADP-Glo reagent based assay relative to control; format: protein-complex assay; settings: time 70.0 min
[12] = target: T1, Cyclin-dependent kinase 2/cyclin E1 (Homo sapiens); assay: Inhibition of CDK2/Cyclin E1 (unknown origin) at 200 nM preincubated for 10 mins followed by substrate addition and measured after 60 mins in presence of ATP by ADP-Glo reagent based assay relative to control; format: protein-complex assay; settings: time 70.0 min
NCI-H1975 [13] = assay: Downregulation of Mcl-1 mRNA expression in human Osimertinib-resistant NCI-H1975 cell at 0.1 to 1.0 uM measured after 8 hrs by qPCR analysis; format: functional, cell-based; settings: dose 0.1-1 µM
[14] = Toxicity in ICR mouse assessed as abnormalities in kidney at 1000 mg/kg, po measured after 9 days by H and E staining based analysis; format: organism-based; settings: in vivo, 216 h, time 9 day
NCI-H1975 [15] = assay: Downregulation of Mcl-1 level in human Osimertinib-resistant NCI-H1975 cell at 500 nM by Western blotting analysis; format: functional, cell-based; settings: time 2-12 hrs, TDE = time-dependent effect
[16] = Toxicity in ICR mouse assessed as morphological changes in heart at 1000 mg/kg, po measured after 9 days by H and E staining based analysis; format: organism-based; settings: in vivo, 216 h, time 9 day
[17] = target: Receptor-type tyrosine-protein kinase FLT3 (Homo sapiens) (UniProt P36888); assay: Inhibition of FLT3 (unknown origin) at 100 nM preincubated for 10 mins followed by substrate addition and measured after 60 mins in presence of ATP by ADP-Glo reagent based assay relative to control; settings: time 70.0 min
[18] = Toxicity in ICR mouse assessed as effect on body weight loss at 1000 mg/kg, po measured for 8 to 9 days; format: organism-based; settings: in vivo, time 8-9 day
[19] = target: Interleukin-1 receptor-associated kinase 1 (Homo sapiens) (UniProt P51617); assay: Inhibition of IRAK1 (unknown origin) at 500 nM preincubated for 10 mins followed by substrate addition and measured after 60 mins in presence of ATP by ADP-Glo reagent based assay relative to control; settings: time 70.0 min
[20] = Induction of apoptosis in human Osimertinib-resistant NCI-H1975 cell assessed as early apoptotic cells at 2000 nM measured after 16 hrs by Annexin V-FITC and PI staining based analysis (reference value: 1.78%); format: functional
[21] = target: T2, Cyclin-dependent kinase 5/CDK5 activator 1 (Homo sapiens) (UniProt Q00535+Q15078); assay: Inhibition of CDK5/p25NCK (unknown origin) at 200 nM preincubated for 10 mins followed by substrate addition and measured after 60 mins in presence of ATP by ADP-Glo reagent based assay relative to control; format: protein-complex assay; settings: time 70.0 min
cells = settings: Homo sapiens, Osimertinib-resistant HCC827AR cell, 72 h
[22] = target: Cyclin-Y/Cyclin-dependent kinase 16 (Homo sapiens) (UniProt Q00536+Q8ND76); assay: Inhibition of CDK16/cyclin Y (unknown origin) at 200 nM preincubated for 10 mins followed by substrate addition and measured after 60 mins in presence of ATP by ADP-Glo reagent based assay relative to control; format: protein-complex assay; settings: time 70.0 min
[23] = target: T2, Cyclin-dependent kinase 5/CDK5 activator 1 (Homo sapiens); assay: Inhibition of CDK5/p35NCK (unknown origin) at 200 nM preincubated for 10 mins followed by substrate addition and measured after 60 mins in presence of ATP by ADP-Glo reagent based assay relative to control; format: protein-complex assay; settings: time 70.0 min
[24] = target: Cyclin-dependent kinase 4/cyclin D1 (Homo sapiens) (UniProt P11802+P24385); assay: Inhibition of CDK4/Cyclin D1 (unknown origin) at 200 nM preincubated for 10 mins followed by substrate addition and measured after 60 mins in presence of ATP by ADP-Glo reagent based assay relative to control; format: protein-complex assay; settings: time 70.0 min
[25] = Induction of apoptosis in human Osimertinib-resistant NCI-H1975 cell assessed as viable cells at 125 nM measured after 16 hrs by Annexin V-FITC and PI staining based analysis (reference value: 94.9%); format: functional; settings: read-out: Activity
[26] = Toxicity in ICR mouse assessed as abnormalities in spleen at 1000 mg/kg, po measured after 9 days by H and E staining based analysis; format: organism-based; settings: in vivo, 216 h, time 9 day
[27] = target: CDK6/cyclin D3 (Homo sapiens) (UniProt P30281+Q00534); assay: Inhibition of CDK6/cyclin D3 (unknown origin) at 200 nM preincubated for 10 mins followed by substrate addition and measured after 60 mins in presence of ATP by ADP-Glo reagent based assay relative to control; format: protein-complex assay; settings: time 70.0 min
[28] = Induction of apoptosis in human Osimertinib-resistant NCI-H1975 cell assessed as early apoptotic cells at 125 nM measured after 16 hrs by Annexin V-FITC and PI staining based analysis (Rvb =1.78%); format: functional

T2 sequence (Q00535 whole entry): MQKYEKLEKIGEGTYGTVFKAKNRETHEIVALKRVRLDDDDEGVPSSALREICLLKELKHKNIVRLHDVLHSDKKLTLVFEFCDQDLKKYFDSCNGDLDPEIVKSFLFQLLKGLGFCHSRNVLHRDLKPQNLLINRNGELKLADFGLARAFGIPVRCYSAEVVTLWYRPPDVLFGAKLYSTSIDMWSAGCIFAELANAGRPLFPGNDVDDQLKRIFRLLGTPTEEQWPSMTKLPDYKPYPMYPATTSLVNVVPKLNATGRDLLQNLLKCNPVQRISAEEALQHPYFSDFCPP
T2 sequence (Q15078 99-307 partner limits assumed): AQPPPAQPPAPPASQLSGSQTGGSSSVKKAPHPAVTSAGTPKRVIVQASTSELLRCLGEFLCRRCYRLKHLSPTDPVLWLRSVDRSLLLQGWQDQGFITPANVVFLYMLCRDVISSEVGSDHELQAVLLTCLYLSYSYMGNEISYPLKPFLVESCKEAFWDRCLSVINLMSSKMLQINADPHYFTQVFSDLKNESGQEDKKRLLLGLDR
Sequence of Interleukin-1 receptor-associated kinase 1 (Homo sapiens) (P51617 whole entry, looked up): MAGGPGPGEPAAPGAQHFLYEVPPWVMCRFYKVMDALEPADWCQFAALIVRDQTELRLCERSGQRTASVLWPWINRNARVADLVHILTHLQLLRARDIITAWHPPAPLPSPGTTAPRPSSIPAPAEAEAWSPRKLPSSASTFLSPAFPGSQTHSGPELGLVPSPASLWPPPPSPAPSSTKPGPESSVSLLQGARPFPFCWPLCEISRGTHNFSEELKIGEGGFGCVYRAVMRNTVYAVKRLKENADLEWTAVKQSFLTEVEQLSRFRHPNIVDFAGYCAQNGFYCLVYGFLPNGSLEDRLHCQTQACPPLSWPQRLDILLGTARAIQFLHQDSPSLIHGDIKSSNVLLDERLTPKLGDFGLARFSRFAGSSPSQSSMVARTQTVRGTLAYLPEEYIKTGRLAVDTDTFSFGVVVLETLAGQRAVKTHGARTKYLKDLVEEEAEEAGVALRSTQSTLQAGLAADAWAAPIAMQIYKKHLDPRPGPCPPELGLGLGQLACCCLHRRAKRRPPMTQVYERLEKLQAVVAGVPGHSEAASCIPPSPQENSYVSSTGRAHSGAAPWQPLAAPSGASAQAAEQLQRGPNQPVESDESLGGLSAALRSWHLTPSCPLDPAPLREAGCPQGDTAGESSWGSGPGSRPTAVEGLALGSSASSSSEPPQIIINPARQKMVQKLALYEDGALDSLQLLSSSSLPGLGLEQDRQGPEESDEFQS
Sequence of Dual specificity protein kinase CLK3 (Homo sapiens) (P49761 whole entry, looked up): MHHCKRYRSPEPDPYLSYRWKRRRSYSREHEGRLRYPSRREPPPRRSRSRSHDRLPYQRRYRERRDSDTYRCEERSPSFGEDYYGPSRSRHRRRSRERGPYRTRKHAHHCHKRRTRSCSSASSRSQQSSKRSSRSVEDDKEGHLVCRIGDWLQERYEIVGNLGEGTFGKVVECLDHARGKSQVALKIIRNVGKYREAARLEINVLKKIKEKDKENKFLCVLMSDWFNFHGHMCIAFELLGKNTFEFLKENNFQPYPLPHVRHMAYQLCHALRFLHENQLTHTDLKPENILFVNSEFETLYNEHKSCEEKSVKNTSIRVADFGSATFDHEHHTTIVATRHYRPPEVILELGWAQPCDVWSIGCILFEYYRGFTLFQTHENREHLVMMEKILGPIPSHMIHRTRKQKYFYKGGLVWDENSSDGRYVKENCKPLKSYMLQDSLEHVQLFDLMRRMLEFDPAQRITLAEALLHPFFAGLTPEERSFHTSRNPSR
Sequence of Cyclin-dependent kinase 13/Cyclin-K (Homo sapiens) (O75909 whole entry, looked up): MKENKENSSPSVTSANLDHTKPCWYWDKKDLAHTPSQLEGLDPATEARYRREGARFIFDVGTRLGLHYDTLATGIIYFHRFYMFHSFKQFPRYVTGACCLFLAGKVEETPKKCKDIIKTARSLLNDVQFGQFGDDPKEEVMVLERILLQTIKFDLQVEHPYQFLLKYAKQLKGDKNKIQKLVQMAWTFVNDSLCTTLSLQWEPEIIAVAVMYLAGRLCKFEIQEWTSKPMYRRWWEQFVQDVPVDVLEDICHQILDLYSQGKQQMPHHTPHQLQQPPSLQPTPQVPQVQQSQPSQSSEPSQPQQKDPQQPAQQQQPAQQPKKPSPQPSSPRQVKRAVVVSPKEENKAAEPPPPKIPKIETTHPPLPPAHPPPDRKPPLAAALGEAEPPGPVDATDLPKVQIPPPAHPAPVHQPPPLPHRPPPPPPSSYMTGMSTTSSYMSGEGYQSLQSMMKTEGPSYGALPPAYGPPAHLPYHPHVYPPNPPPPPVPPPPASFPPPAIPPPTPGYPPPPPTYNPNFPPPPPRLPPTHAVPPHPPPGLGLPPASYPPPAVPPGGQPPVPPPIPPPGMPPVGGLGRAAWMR
Sequence of Cyclin-dependent kinase 13/Cyclin-K (Homo sapiens) (Q14004 whole entry, looked up): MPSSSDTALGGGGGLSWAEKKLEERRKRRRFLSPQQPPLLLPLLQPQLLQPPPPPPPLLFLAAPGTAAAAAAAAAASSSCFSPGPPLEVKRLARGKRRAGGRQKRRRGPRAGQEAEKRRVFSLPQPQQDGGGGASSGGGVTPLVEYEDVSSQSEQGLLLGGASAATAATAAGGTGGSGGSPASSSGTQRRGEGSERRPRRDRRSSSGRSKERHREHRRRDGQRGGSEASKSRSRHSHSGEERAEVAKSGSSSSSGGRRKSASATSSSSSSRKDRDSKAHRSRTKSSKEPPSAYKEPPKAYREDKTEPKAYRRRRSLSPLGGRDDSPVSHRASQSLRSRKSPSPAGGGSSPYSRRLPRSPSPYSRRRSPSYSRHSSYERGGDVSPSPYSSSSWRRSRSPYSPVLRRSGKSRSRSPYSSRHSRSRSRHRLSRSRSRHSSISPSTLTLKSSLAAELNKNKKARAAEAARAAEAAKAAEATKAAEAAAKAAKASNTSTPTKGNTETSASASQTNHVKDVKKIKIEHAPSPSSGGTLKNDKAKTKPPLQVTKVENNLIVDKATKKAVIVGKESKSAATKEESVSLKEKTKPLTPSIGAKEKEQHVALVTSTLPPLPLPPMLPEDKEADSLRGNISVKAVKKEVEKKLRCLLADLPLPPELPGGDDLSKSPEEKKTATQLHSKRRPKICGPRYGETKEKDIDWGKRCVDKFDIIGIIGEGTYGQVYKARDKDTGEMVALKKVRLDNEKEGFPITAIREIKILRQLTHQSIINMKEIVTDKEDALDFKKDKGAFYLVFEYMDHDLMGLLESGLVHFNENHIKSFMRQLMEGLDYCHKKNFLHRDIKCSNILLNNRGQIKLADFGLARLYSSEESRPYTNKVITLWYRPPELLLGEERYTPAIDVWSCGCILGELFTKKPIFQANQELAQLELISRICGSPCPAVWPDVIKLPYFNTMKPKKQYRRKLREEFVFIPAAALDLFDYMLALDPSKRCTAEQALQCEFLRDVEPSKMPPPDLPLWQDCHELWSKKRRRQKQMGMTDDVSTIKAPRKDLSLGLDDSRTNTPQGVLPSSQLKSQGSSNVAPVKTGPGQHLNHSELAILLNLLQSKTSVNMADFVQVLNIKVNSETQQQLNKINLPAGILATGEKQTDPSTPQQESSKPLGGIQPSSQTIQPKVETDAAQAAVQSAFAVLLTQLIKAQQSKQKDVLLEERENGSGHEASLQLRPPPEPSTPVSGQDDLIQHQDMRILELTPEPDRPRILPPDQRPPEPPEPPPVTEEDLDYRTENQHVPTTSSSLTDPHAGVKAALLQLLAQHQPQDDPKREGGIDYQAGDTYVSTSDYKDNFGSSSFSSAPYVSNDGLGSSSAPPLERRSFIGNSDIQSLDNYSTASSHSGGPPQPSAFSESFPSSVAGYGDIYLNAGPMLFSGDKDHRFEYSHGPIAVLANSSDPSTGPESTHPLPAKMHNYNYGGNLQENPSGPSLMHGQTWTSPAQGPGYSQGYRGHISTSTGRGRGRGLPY
Sequence of Receptor-type tyrosine-protein kinase FLT3 (Homo sapiens) (P36888 whole entry): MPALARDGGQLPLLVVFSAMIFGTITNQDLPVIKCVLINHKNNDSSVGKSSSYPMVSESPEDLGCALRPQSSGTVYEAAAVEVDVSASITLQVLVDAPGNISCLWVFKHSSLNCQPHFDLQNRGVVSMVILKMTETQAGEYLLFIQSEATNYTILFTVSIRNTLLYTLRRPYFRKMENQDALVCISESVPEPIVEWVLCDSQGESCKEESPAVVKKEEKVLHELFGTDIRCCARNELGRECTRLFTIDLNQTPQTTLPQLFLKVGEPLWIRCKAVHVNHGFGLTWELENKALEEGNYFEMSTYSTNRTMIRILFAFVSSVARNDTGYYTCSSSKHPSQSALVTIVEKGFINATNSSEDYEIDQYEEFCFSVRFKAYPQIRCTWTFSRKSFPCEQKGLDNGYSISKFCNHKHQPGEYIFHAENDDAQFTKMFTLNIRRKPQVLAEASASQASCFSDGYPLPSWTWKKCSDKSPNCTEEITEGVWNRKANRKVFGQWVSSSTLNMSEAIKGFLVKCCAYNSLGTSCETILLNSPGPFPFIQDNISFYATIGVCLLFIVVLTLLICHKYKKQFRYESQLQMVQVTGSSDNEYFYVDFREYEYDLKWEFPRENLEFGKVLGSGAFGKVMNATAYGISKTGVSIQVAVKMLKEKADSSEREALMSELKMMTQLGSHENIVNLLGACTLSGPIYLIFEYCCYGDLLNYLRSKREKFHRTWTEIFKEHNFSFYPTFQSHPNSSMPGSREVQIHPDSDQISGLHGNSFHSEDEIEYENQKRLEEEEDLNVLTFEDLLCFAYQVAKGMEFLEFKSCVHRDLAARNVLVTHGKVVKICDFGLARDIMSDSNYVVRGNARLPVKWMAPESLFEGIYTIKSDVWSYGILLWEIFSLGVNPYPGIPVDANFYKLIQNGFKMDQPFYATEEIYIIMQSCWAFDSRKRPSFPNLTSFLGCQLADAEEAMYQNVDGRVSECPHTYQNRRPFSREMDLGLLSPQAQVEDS

O=C(NCCN1CCOCC1)c1ccc2cc1OCCCCCCOc1cc(ccc1F)-c1nc(ncc1F)N2
Activity [1]: Non-Toxic | IC50 [2]: 130 nM | inhibition (NCI-H1975 [3]): Active | half-life [4]: 1.8 h | IC50 (HCC827): 315 nM | Activity [5]: Non-Toxic | inhibition [6]: 76.1% | Activity [7]: 0.27% | inhibition [8]: 5.7% | IC50 (NCI-H1975 [9]): 174 nM | Activity (NCI-H1975 [10]): Dose-Dependent Effect | inhibition [11]: 46.7% | inhibition [12]: 44.7% | Activity (NCI-H1975 [13]): Active | Activity [14]: Non-Toxic | Activity (NCI-H1975 [15]): Tde | Activity [16]: Non-Toxic | inhibition [17]: 21.2% | Activity [18]: Non-Toxic | inhibition [19]: 73.5% | Activity [20]: 18.9% | inhibition [21]: 38.9% | IC50 (cells): 251 nM | inhibition [22]: 25.9% | inhibition [23]: 16.3% | inhibition [24]: 32.1% | viability at 0.125 µM [25]: 88.9% | Activity [26]: Non-Toxic | inhibition [27]: 11.6% | Activity [28]: 4.7%
